Test results as given in patent US12509424B2, “Compound and composition as PDGF receptor kinase inhibitor” (NIPPON SHINYAKU CO., LTD., priority 2019, dated 2025).

Experiments:
[1] = biological target: PDGFR-β (Homo sapiens (Human), UniProt P09619); assay: PDGFR-β tyrosine kinase inhibitory action (HTRF KinEASE-TK); type: biochemical; conditions: PDGFR-β enzyme 1 ng/μL, 30° C. for 30 minutes; read-out: PDGF-β IC50
Protocol: (§1) 1. Preparation of Test Substance
This DMSO solution was diluted by 8 times with an assay buffer 1 (50 mM HEPES (pH 7.0), 0.02% NaN3, 0.01% Bovine Serum Albumin, 0.1 mM orthovanadate, 1 mM Dithiothreitol, 5 mM MgCl2, and 1 mM MnCl2) and further diluted by 5 times with an assay buffer 2 (50 mM HEPES (pH 7.0), 0.02% NaN3, 0.01% Bovine Serum Albumin, 0.1 mM orthovanadate, 1 mM Dithiothreitol, 5 mM MgCl2, 1 mM MnCl2, and 40 nM Supplemented Enzymatic Buffer (cisbio)).
2. Measurement of PDGFR-β Tyrosine Kinase Inhibitory Action
For the measurement, the HTRF KinEASE-TK kit from Cisbio Bioassays SAS was used. To a 384 well plate, the test substance solution was added at 4 μL each, then 2 μL of a PDGFR-β enzyme solution (final concentration of 1 ng/μL, Carna Biosciences, Inc.) and 4 μL of a substrate solution obtained by adding 0.6 μM ATP to TK substrate-3-biotin (cisbio) were added, and the solution was allowed to react at 30° C. for 30 minutes at a final concentration of the test substance being 0.01 to 10,000 nM.
Thereafter, 10 μL of a detection solution (cisbio) was added to each well and allowed to react at 30° C. for 1 hour. The fluorescence intensity was measured with a microplate reader (Spectra Max M5, Molecular device).
(§2) 3. Analysis of Measurement Results

[2] = system: pulmonary arterial smooth muscle cells; assay: Suppression of proliferation of pulmonary arterial smooth muscle cells (PDGF-BB stimulation, BrdU); type: cell-based; conditions: PASMC, 24 h; healthy human derived pulmonary arterial smooth muscle cells; human PDGF-BB 10 ng/mL stimulation; BrdU uptake after 1 day; test substance final concentration 3 to 10,000 nM; read-out: Human normal PASMC proliferation suppression (PDGF stimulation_IC50)
Protocol: as §1
Furthermore, it was diluted by 50 times with distilled water.
2. Measurement of Suppression Action Against Proliferation of Pulmonary Arterial Smooth Muscle Cells
The day after healthy human derived pulmonary arterial smooth muscle cells were seeded onto a 96 well plate using a smooth muscle cell proliferation medium, the proliferation medium was replaced with a 0.1% FBS medium, and the cells were cultured for an additional day. A test substance solution was diluted by 10 times with a medium containing BrdU and human PDGF-BB (final concentration of 10 ng/mL, Sigma-Aldrich) and added to cells in equal amounts so as to reach a final concentration of 3 to 10,000 nM. Also, to the human PDGF-BB negative control, BrdU and 0.1% DMSO solution were added. After culturing for 1 day, the amount of BrdU taken up by the proliferating cells was measured using an anti-BrdU antibody.
as §2

PDGFR-β, sequence (P09619 33-1106): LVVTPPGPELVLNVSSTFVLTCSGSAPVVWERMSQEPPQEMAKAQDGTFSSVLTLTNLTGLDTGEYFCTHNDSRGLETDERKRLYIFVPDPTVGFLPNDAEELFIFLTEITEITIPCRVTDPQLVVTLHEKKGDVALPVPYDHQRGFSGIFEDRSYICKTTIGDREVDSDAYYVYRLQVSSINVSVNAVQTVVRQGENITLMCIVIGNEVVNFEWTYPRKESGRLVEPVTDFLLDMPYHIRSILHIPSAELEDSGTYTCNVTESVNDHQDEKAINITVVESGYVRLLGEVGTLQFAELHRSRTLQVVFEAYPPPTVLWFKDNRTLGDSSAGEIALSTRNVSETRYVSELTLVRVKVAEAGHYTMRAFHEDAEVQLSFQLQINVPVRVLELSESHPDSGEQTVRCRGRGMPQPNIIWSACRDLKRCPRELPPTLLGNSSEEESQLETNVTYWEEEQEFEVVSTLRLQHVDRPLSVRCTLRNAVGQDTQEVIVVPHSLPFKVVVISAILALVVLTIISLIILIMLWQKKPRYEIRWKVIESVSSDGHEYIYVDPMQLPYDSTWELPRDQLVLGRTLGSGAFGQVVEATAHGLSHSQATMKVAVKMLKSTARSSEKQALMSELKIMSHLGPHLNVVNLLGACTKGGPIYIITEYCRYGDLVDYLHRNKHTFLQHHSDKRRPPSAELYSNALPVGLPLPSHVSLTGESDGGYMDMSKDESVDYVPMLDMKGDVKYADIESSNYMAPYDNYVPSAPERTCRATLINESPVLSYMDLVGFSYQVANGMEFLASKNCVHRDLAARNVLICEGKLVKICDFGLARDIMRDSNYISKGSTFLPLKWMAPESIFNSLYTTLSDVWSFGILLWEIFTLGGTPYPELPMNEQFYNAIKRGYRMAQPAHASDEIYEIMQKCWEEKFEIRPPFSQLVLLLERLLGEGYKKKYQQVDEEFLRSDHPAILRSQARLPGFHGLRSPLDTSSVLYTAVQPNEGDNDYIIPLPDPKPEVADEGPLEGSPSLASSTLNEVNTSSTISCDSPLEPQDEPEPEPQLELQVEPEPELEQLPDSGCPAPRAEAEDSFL

Row | Structure (SMILES) | IC50 [1] | IC50 [2]
1 | Cc1ccc(C(=O)N[C@H]2CCCC[C@@H]2O)cc1NCc1cnc(-c2ccccc2)nc1 [Example 121, N-[(1S,2S)-2-hydroxycyclohexyl]-4-methyl-3-{[(2-phenylpyrimidin-5-yl)methyl]amino}benzamide] | 160 nM | 300 nM
2 | Cc1ccc(C(=O)N[C@H]2CCCC[C@@H]2O)cc1NCc1ccc(-n2cccn2)nc1 [Example 122, N-[(1S,2S)-2-hydroxycyclohexyl]-4-methyl-3-({[6-(1H-pyrazol-1-yl)pyridin-3-yl]methyl}amino)benzamide] | 150 nM | 300 nM
3 | Cc1ncc(C(=O)N[C@H]2CCCC[C@@H]2O)cc1NCc1cnn2ccccc12 [Example 123, N-[(1S,2S)-2-hydroxycyclohexyl]-6-methyl-5-{[(pyrazolo[1,5-a]pyridin-3-yl)methyl]amino}pyridine-3-carboxamide] | 210 nM | 290 nM
4 | Cc1ccc(C(=O)N[C@H]2CCCC[C@@H]2O)cc1NCc1ccc(NC2CCOCC2)nc1 [Example 125, N-[(1S,2S)-2-hydroxycyclohexyl]-4-methyl-3-[({6-[(oxan-4-yl)amino]pyridin-3-yl}methyl)amino]benzamide] | 130 nM | 30 nM
5 | COc1ccc(-c2ncc(CNc3cc(C(=O)N[C@H]4CCCC[C@@H]4O)ccc3C)cn2)cc1 [Example 128, N-[(1S,2S)-2-hydroxycyclohexyl]-3-({[2-(4-methoxyphenyl)pyrimidin-5-yl]methyl}amino)-4-methylbenzamide] | 180 nM | 79 nM
6 | Cc1ccc(C(=O)N[C@H]2CCCC[C@@H]2O)cc1NCc1cnc(N)cn1 [Example 131, 3-{[(5-aminopyrazin-2-yl)methyl]amino}-N-[(1S,2S)-2-hydroxycyclohexyl]-4-methylbenzamide] | 490 nM | 340 nM

Stronger by IC50 [1], values ahead:

Row | IC50 [1] | Structure (SMILES) | IC50 [2]
7 | 20 nM | Cc1ccc(C(=O)N[C@H]2CCCC[C@@H]2O)cc1NCc1ccc(NC(=O)C2CC2)nc1 [Example 120, 3-[({6-[(cyclopropanecarbonyl)amino]pyridin-3-yl}methyl)amino]-N-[(1S,2S)-2-hydroxycyclohexyl]-4-methylbenzamide] | 34 nM
8 | 22 nM | COC(=O)Nc1ccc(CNc2cc(C(=O)N[C@H]3CCCC[C@@H]3O)ccc2C)cn1 [Example 124, methyl {5-[(5-{[(1S,2S)-2-hydroxycyclohexyl]carbamoyl}-2-methylanilino)methyl]pyridin-2-yl}carbamate] | 25 nM
9 | 45 nM | Cc1ccc(C(=O)N[C@H]2CCCC[C@@H]2O)cc1NCc1cnc(Nc2ccccn2)nc1 [Example 126, N-[(1S,2S)-2-hydroxycyclohexyl]-4-methyl-3-[({2-[(pyridin-2-yl)amino]pyrimidin-5-yl}methyl)amino]benzamide] | 64 nM
10 | 63 nM | Cc1ccc(C(=O)N[C@H]2CCCC[C@@H]2O)cc1NCc1ccc(NC(=O)N2CCOCC2)nc1 [Example 127, N-{5-[(5-{[(1S,2S)-2-hydroxycyclohexyl]carbamoyl}-2-methylanilino)methyl]pyridin-2-yl}morpholine-4-carboxamide] | 45 nM
11 | 17 nM | Cc1ccc(C(=O)N[C@H]2CCCC[C@@H]2O)cc1NCc1ccc(NC(=O)Nc2cccnc2)nc1 [Example 129, N-[(1S,2S)-2-hydroxycyclohexyl]-4-methyl-3-{[(6-{[(pyridin-3-yl)carbamoyl]amino}pyridin-3-yl)methyl]amino}benzamide] | 20 nM
12 | 80 nM | Cc1ccc(C(=O)N[C@H]2CCCC[C@@H]2O)cc1NCc1ccc(NC2CCC2)nc1 [Example 130, 3-({[6-(cyclobutylamino)pyridin-3-yl]methyl}amino)-N-[(1S,2S)-2-hydroxycyclohexyl]-4-methylbenzamide] | 53 nM
13 | 72 nM | Cc1ccc(C(=O)N[C@H]2CCCC[C@@H]2O)cc1NCc1cnc(NC2CCOCC2)nc1 [Example 132, N-[(1S,2S)-2-hydroxycyclohexyl]-4-methyl-3-[({2-[(oxan-4-yl)amino]pyrimidin-5-yl}methyl)amino]benzamide] | 73 nM
